Experiments:
[1] = pH stability of quenched linker-payloads in buffers (LCMS); type: physicochemical
Protocol: To a solution of compound (payloads or quenched-linker-payloads) in DMSO (0.2-1.0 mg/mL) was added corresponding PBS buffer (V(buffer)/V(DMSO)=5) to give test samples (pH 3, 4, 5, 6, 7.4, and 8.5, or other special pH). The test samples were incubated at RT for at least 3 days and monitored by LCMS (i.e., at 1 hr, 2 hr, 4 hr, 8 hr, and 1 day, 2 day, 3 day, 4 day, 5 day, 6 day, 7 day, 8 day, 9 day, and 21 day time points). Initial concentrations of the samples were 0.2 mg/mL (DMSO/buffer, v/v=1/5). […] The payloads and quenched linker-payloads were mostly stable at pH >5.0, 6.0, 7.4 and 8.5 after 3 days. In more acidic conditions, such as pH 1.0, the payloads or linker-payloads were easily cleaved to release D*-OH.

[2] = Metabolic stability with human liver microsomes; type: in vitro ADME; settings: for Area ratio of III formed from PIII-1 / Percent Remaining (%): Mean
Protocol: The metabolic stability of payload PIII-1 incubated with human liver microsomes was evaluated and the results were shown in the Table 7e below.

[3] = buffer, 1 day, 0.2 mg/mL, pH 7.4
[4] = buffer, 2 day, 0.2 mg/mL, pH 7.4
[5] = buffer, 7 day, 0.2 mg/mL, pH 7.4

SMILES	LP: percentage of linker-payloads remaining ([1]; pH 4.0, day 1) [%]	P: percentage of budesonide released from the linker-payloads ([1]; pH 4.0, day 1) [%]	LP: percentage of linker-payloads remaining ([1]; pH 4.0, day 2) [%]	P: percentage of budesonide released from the linker-payloads ([1]; pH 4.0, day 2) [%]	LP: percentage of linker-payloads remaining ([1]; pH 4.0, day 7) [%]	P: percentage of budesonide released from the linker-payloads ([1]; pH 4.0, day 7) [%]	LP: percentage of linker-payloads remaining ([1]; pH 5.0, day 1) [%]	P: percentage of budesonide released from the linker-payloads ([1]; pH 5.0, day 1) [%]	LP: percentage of linker-payloads remaining ([1]; pH 5.0, day 2) [%]	P: percentage of budesonide released from the linker-payloads ([1]; pH 5.0, day 2) [%]	LP: percentage of linker-payloads remaining ([1]; pH 5.0, day 7) [%]	P: percentage of budesonide released from the linker-payloads ([1]; pH 5.0, day 7) [%]	LP: percentage of linker-payloads remaining ([1]; pH 7.4, day 1) [%]	P: percentage of budesonide released from the linker-payloads ([1]; pH 7.4, day 1) [%]	LP: percentage of linker-payloads remaining ([1]; pH 7.4, day 2) [%]	P: percentage of budesonide released from the linker-payloads ([1]; pH 7.4, day 2) [%]	P: percentage of budesonide released from the linker-payloads ([1]; pH 7.4, day 7) [%]	P: percentage of budesonide released from the linker-payloads ([1]; pH 6.0, day 1) [%]	P: percentage of budesonide released from the linker-payloads ([1]; pH 6.0, day 2) [%]	P: percentage of budesonide released from the linker-payloads ([1]; pH 6.0, day 7) [%]	also measured
CCCC1OC2CC3C4CCC5=CC(=O)C=CC5(C)C4C(O)CC3(C)C2(C(=O)COCN2CCCC(NC(=O)OCc3ccc(NC(=O)C(CCCNC(N)=O)NC(=O)C(NC(=O)CCOCCOCCOCCOCCNC(=O)CCC(=O)N4Cc5ccccc5-c5c(nnn5CCOCCOCCOCCOCCC(=O)NCCS(=O)(=O)O)-c5ccccc54)C(C)C)cc3)C2=O)O1 (mixture of isomers) [Q1L1-PII-12]	100	0	100	0	100	0	100	0	100	0	100	0	100	0	100	0	0	–	–	–	LP: percentage of linker-payloads remaining ([1]; pH 7.4, day 7): 100%
CCCC1OC2CC3C4CCC5=CC(=O)C=CC5(C)C4C(O)CC3(C)C2(C(=O)COC2CCN2C(=O)CNC(=O)CCOCCOCCOCCOCCNC(=O)CCC(=O)N2Cc3ccccc3-c3c(nnn3CCOCCOCCOCCOCCC(=O)NCCS(=O)(=O)O)-c3ccccc32)O1 (mixture of isomers) [Q1L6-PII-13]	100	0	100	0	100	0	100	0	100	0	100	0	100	0	100	0	0	0	0	0	LP: percentage of linker-payloads remaining ([1]; pH 6.0, day 1): 100%; LP: percentage of linker-payloads remaining ([1]; pH 6.0, day 2): 100%; LP: percentage of linker-payloads remaining ([1]; pH 6.0, day 7): 100%; LP: percentage of linker-payloads remaining ([1]; pH 7.4, day 7): 100%
CCCC1O[C@@H]2C[C@H]3[C@@H]4C[C@H](F)C5=CC(=O)C=C[C@]5(C)[C@@]4(F)[C@@H](O)C[C@]3(C)[C@]2(C(=O)CO)O1 (stereo partly drawn) [III from P11I-1]	–	–	–	–	–	–	–	–	–	–	–	–	–	–	–	–	–	–	–	–	Area ratio of III formed from PIII-1 ([2]; 0 min): BQL; Area ratio of III formed from PIII-1 ([2]; 5 min): 0.001; Area ratio of III formed from PIII-1 ([2]; 15 min): 0.002; Area ratio of III formed from PIII-1 ([2]; 30 min): 0.001; Area ratio of III formed from PIII-1 ([2]; 45 min): 0.001
CCCC1O[C@@H]2C[C@H]3[C@@H]4CCC5=CC(=O)C=C[C@]5(C)[C@H]4[C@@H](O)C[C@]3(C)[C@]2(C(=O)COCNC(=O)CNC(=O)OCc2ccc(O[C@@H]3O[C@H](CO)[C@@H](O)[C@H](O)[C@H]3O)c(C(=O)NCCNC(=O)COC3C#CCCCCC3)c2)O1 (stereo partly drawn) [L18-PII-1, COT-EDA-(GLC)PAB-G-NHCH2-Bud]	–	0	–	0	–	0	–	0	–	0	–	0	–	0	–	0	0	0	0	0	LP: percentage of linker-payloads remaining ([1]; buffer, 1 day, 0.2 mg/mL, pH 4): 100%; LP: percentage of linker-payloads remaining ([1]; buffer, 1 day, 0.2 mg/mL, pH 5): 100%; LP: percentage of linker-payloads remaining ([1]; buffer, 1 day, 0.2 mg/mL, pH 6): 100%; LP: percentage of linker-payloads remaining [1, 3]: 100%; LP: percentage of linker-payloads remaining ([1]; buffer, 2 day, 0.2 mg/mL, pH 4): 100%; LP: percentage of linker-payloads remaining ([1]; buffer, 2 day, 0.2 mg/mL, pH 5): 100%; LP: percentage of linker-payloads remaining ([1]; buffer, 2 day, 0.2 mg/mL, pH 6): 100%; LP: percentage of linker-payloads remaining [1, 4]: 100%; LP: percentage of linker-payloads remaining ([1]; buffer, 7 day, 0.2 mg/mL, pH 4): 100%; LP: percentage of linker-payloads remaining ([1]; buffer, 7 day, 0.2 mg/mL, pH 5): 100%; LP: percentage of linker-payloads remaining ([1]; buffer, 7 day, 0.2 mg/mL, pH 6): 100%; LP: percentage of linker-payloads remaining [1, 5]: 100%
CCCC1O[C@@H]2C[C@H]3[C@@H]4CCC5=CC(=O)C=C[C@]5(C)[C@H]4[C@@H](O)C[C@]3(C)[C@]2(C(=O)COC2CCCN2C(=O)CNC(=O)CCOCCOCCOCCOCCNC(=O)CCC(=O)N2Cc3ccccc3-c3c(nnn3CCOCCOCCOCCOCCC(=O)NCCS(=O)(=O)O)-c3ccccc32)O1 (stereo partly drawn) [Q1L6-PII-9]	–	69	–	89	–	99	–	5	–	10	–	28	–	0	–	0	0	0	0	8	LP: percentage of linker-payloads remaining ([1]; buffer, 1 day, 0.2 mg/mL, pH 4): 30%; LP: percentage of linker-payloads remaining ([1]; buffer, 1 day, 0.2 mg/mL, pH 6): 100%; LP: percentage of linker-payloads remaining [1, 3]: 100%; LP: percentage of linker-payloads remaining ([1]; buffer, 2 day, 0.2 mg/mL, pH 4): 10%; LP: percentage of linker-payloads remaining ([1]; buffer, 2 day, 0.2 mg/mL, pH 6): 100%; LP: percentage of linker-payloads remaining [1, 4]: 100%; LP: percentage of linker-payloads remaining ([1]; buffer, 7 day, 0.2 mg/mL, pH 4): 0%; LP: percentage of linker-payloads remaining ([1]; buffer, 7 day, 0.2 mg/mL, pH 6): 92%; LP: percentage of linker-payloads remaining [1, 5]: 100%
O=C(c1ccc(F)cc1)C1CCN(CCn2c(=O)[nH]c3ccccc3c2=O)CC1 [ketanserin]	–	–	–	–	–	–	–	–	–	–	–	–	–	–	–	–	–	–	–	–	Percent Remaining (%) ([2]; 0 min): 100.00%; Percent Remaining (%) ([2]; 5 min): 81.45%; Percent Remaining (%) ([2]; 15 min): 67.51%; Percent Remaining (%) ([2]; 30 min): 41.90%; Percent Remaining (%) ([2]; 45 min): 36.47%; CLint scaled ([2]; human): 55.2 mL/min/kg; half-life ([2]; human): 31.5 min

— patent US20230119539A1, “TRACELESS LINKERS AND PROTEIN-CONJUGATES THEREOF” (Regeneron Pharmaceuticals, Inc., priority 2019, published 2023)
